Target: NMDA receptor (GRIN1/GRIN2A) (Homo sapiens, UniProt Q05586+Q12879)
Experiment: NMDA potentiation, two electrode voltage clamp (TEVC) of Xenopus oocytes expressing NMDA receptor
Type: cell-based
Conditions: 10 μM compound, 3 μM Glutamate and Glycine
Protocol: NMDA potentiation was assessed using either whole cell patch clamp of mammalian cells which expressed NMDA receptors, or using two-electrode voltage clamp (TEVC) of Xenopus Laevis oocytes expressing NMDA receptors.
The Two Electrode Voltage Clamp (TEVC) technique was used to investigate the effects of compounds (10 μM) on the NMDA receptor (GRIN1/GRIN2A) expressed in Xenopus oocytes. Glutamate/Glycine peak and steady-state currents were recorded from oocytes that expressed the NMDA receptor and the modulatory effects of the test items on these currents were investigated.
Ovaries were harvested from Xenopus Laevis females that had been deeply anesthetized by cooling at 4° C. and immersion in Tricaine methanesulfonate (MS-222 at a concentration of 150 mg/L) in sodium bicarbonate (300 mg/L). Once anesthetized the animal was decapitated and pithed following the rules of animal rights from the Geneva canton. A small piece of ovary was isolated for immediate preparation while the remaining part was placed at 4° C. in a sterile Barth solution containing in mM NaCl 88, KCl 1, NaHCO3 2.4, HEPES 10, MgSO4·7H2O 0.82, Ca(NO3)2·4H2O 0.33, CaCl2·6H2O 0.41, at pH 7.4, and supplemented with 20 μg/ml of kanamycin, 100 unit/ml penicillin and 100 μg/ml streptomycin. All recordings were performed at 18° C. and cells were super-fused with medium containing in mM: NaCl 82.5, KCl 2.5, HEPES 5, CaCl2·2H2O, ·6H2O 1, pH 7.4.
Oocytes were injected with either cDNAs encoding for the human GRIN1 and GRIN2A subunits, using a proprietary automated injection device (Hogg et al., J. Neurosci. Methods, (2008) 169: 65-75) and receptor expression was assessed using electrophysiology at least two days later. The ratio of cDNA injection for GRIN1 and GRIN2A was 1:1. Electrophysiological recordings were made using an automated process equipped with standard TEVC and data were captured and analyzed using a proprietary data acquisition and analysis software running under Matlab (Mathworks Inc.). The membrane potential of the oocytes was maintained at −80 mV throughout the experiments. To explore the effects of proprietary compounds, currents were evoked by applying 3 μM Glutamate and […] Glycine for 10 s. Oocytes were then washed for 90 s before being exposed to the test article at a concentration of 10 μM for 120 s. Following this, 3 μM Glutamate and […] Glycine were immediately reapplied for 10 s. Potentiation of both the peak current and the steady state current was assessed. For statistical analysis values were computed either with Excel (Microsoft) or Matlab (Mathworks Inc.). To obtain mean measurements with standard deviations, all experiments were carried out using at least three cells.
Glutamate was prepared as a concentrated stock solution ([…]) in water and then diluted in the recording medium to obtain the desired test concentration. Glycine was prepared as a stock solution at 1 M in water. Compounds were prepared as stock solution ([…]) in DMSO and then diluted in the recording medium to obtain the desired test concentration.

Sequence of NMDA receptor (GRIN1/GRIN2A) (Q12879 23-1464, other chains not shown): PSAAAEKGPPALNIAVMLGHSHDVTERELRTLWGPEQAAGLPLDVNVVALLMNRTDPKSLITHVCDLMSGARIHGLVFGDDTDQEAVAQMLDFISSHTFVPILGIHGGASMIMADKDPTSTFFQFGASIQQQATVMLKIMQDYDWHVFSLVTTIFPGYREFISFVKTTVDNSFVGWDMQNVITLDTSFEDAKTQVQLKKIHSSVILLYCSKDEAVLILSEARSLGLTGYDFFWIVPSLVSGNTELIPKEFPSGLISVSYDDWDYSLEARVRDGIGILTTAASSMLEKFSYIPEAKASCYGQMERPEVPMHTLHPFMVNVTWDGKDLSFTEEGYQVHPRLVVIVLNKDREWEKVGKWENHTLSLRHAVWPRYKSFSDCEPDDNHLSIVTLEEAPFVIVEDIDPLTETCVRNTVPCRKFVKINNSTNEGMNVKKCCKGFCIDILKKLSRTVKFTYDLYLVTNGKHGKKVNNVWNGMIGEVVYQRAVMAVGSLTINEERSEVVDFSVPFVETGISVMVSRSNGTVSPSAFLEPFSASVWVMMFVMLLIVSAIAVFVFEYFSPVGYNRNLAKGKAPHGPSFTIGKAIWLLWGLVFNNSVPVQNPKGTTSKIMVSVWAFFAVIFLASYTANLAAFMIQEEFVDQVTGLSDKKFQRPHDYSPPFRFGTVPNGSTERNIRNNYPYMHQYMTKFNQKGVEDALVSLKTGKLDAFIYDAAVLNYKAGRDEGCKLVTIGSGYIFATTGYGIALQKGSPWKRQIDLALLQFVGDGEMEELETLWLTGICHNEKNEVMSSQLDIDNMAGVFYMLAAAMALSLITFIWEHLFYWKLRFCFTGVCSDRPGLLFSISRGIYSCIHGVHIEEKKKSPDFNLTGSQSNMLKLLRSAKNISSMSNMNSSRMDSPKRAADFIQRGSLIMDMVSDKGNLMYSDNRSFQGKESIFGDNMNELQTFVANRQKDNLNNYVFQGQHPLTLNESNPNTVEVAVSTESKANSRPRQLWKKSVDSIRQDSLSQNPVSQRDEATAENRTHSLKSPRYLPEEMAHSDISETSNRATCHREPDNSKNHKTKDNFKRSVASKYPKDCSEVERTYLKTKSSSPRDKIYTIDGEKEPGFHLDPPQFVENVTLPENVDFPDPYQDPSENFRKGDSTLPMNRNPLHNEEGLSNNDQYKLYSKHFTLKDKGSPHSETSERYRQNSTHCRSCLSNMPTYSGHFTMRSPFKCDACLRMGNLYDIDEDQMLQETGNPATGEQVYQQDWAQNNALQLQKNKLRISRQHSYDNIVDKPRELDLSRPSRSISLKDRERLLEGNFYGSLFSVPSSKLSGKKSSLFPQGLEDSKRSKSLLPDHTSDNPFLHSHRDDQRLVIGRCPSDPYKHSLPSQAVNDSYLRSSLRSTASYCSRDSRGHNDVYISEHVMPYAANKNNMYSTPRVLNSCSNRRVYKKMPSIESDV

| SMILES | activation at 10 µM |
| --- | --- |
| CC(C)[C@](C)(O)CC[C@@H](C)[C@H]1CC[C@H]2[C@@H]3CC[C@H]4C[C@@](C)(O)CC[C@]4(C)[C@H]3CC[C@]12C [Compound 8-6] | 10 to 50% |
| C[C@H](CC[C@](C)(O)C1CC1)[C@H]1CC[C@H]2[C@@H]3CC[C@H]4C[C@@](C)(O)CC[C@]4(C)[C@H]3CC[C@]12C [Compound 9-8] | 10 to 50% |
| C=C[C@](C)(O)CC[C@@H](C)[C@H]1CC[C@H]2[C@@H]3CC[C@H]4C[C@@](C)(O)CC[C@]4(C)[C@H]3CC[C@]12C [Compound 10-10] | 10 to 50% |
| C=CC[C@](C)(O)CC[C@@H](C)[C@H]1CC[C@H]2[C@@H]3CC[C@H]4C[C@@](C)(O)CC[C@]4(C)[C@H]3CC[C@]12C [Compound 6-11] | 10 to 50% |
| C[C@H](CC[C@](C)(O)C(F)(F)F)[C@H]1CC[C@H]2[C@@H]3CC[C@H]4C[C@@](C)(O)CC[C@]4(C)[C@H]3CC[C@]12C [Compound 3-8] | 50 to 100% |
| C=CC(C)(O)CC[C@@H](C)[C@H]1CC[C@H]2[C@@H]3CC[C@H]4C[C@@](C)(O)CC[C@]4(C)[C@H]3CC[C@]12C (some centres unmarked) [Compound 10-7] | 50 to 100% |
| C#C[C@@](C)(O)CC[C@@H](C)[C@H]1CC[C@H]2[C@@H]3CC[C@H]4C[C@@](C)(O)CC[C@]4(C)[C@H]3CC[C@]12C [Compound 10-9] | 10 to 50% |
| CCC[C@](C)(O)CC[C@@H](C)[C@H]1CC[C@H]2[C@@H]3CC[C@H]4C[C@@](C)(O)CC[C@]4(C)[C@H]3CC[C@]12C [Compound 5-7] | 50 to 100% |
| CCC[C@](C)(O)CC[C@@H](C)[C@H]1CC[C@H]2[C@@H]3CC=C4C[C@@](C)(O)CC[C@]4(C)[C@H]3CC[C@]12C [Compound 5-5] | 10 to 50% |
| C[C@H](CC[C@@](C)(O)C(F)(F)F)[C@H]1CC[C@H]2[C@@H]3CC=C4C[C@@](C)(O)CC[C@]4(C)[C@H]3CC[C@]12C [Compound 3-6] | 50 to 100% |
| C[C@H](CC[C@@](C)(O)C1CC1)[C@H]1CC[C@H]2[C@@H]3CC=C4C[C@@](C)(O)CC[C@]4(C)[C@H]3CC[C@]12C [Compound 9-3] | 50 to 100% |
| C[C@H](CCC(C)(O)CCCO)[C@H]1CC[C@H]2[C@@H]3CC=C4C[C@@](C)(O)CC[C@]4(C)[C@H]3CC[C@]12C (some centres unmarked) [Compound 6-3] | 50 to 100% |
| CC[C@]1(O)CC[C@@]2(C)[C@@H](CC[C@@H]3[C@@H]2CC[C@]2(C)[C@@H]([C@H](C)CC[C@H](O)C(F)(F)F)CC[C@@H]32)C1 [Compound 2-10] | 10 to 50% |
| C[C@H](CCC(C)(O)C(F)(F)F)[C@H]1CC[C@H]2[C@@H]3CC[C@H]4C[C@@](C)(O)CC[C@]4(C)[C@H]3CC[C@]12C (some centres unmarked) [Compound 3-3] | 50 to 100% |
| C#CC(C)(O)CC[C@@H](C)[C@H]1CC[C@H]2[C@@H]3CC[C@H]4C[C@@](C)(O)CC[C@]4(C)[C@H]3CC[C@]12C (some centres unmarked) [Compound 10-6] | 50 to 100% |
| CC[C@](C)(O)CC[C@@H](C)[C@H]1CC[C@H]2[C@@H]3CC=C4C[C@@](C)(O)CC[C@]4(C)[C@H]3CC[C@]12C [Compound 4-12] | 50 to 100% |
| CC(C)[C@](C)(O)CC[C@@H](C)[C@H]1CC[C@H]2[C@@H]3CC=C4C[C@@](C)(O)CC[C@]4(C)[C@H]3CC[C@]12C [Compound 8-8] | > 100% |
| C#C[C@@](C)(O)CC[C@@H](C)[C@H]1CC[C@H]2[C@@H]3CC=C4C[C@@](C)(O)CC[C@]4(C)[C@H]3CC[C@]12C [Compound 10-4] | 10 to 50% |
| C=CC(C)(O)CC[C@@H](C)[C@H]1CC[C@H]2[C@@H]3CC=C4C[C@@](C)(O)CC[C@]4(C)[C@H]3CC[C@]12C (some centres unmarked) [Compound 10-12] | 10 to 50% |

| SMILES | activation at 10 µM |
| --- | --- |
| C[C@H](CC(F)(F)C(C)(C)O)[C@H]1CC[C@H]2[C@@H]3CC=C4C[C@@](C)(O)CC[C@]4(C)[C@H]3CC[C@]12C [Compound 11-19] | 10 to 50% |
| C[C@H](CC[C@](C)(O)CCO)[C@H]1CC[C@H]2[C@@H]3CC=C4C[C@@](C)(O)CC[C@]4(C)[C@H]3CC[C@]12C [Compound 10-21] | 10 to 50% |
| C[C@H](CCC(C)(O)CCO)[C@H]1CC[C@H]2[C@@H]3CC=C4C[C@@](C)(O)CC[C@]4(C)[C@H]3CC[C@]12C (some centres unmarked) [Compound 10-13] | 50 to 100% |
| C#CC(C)(O)CC[C@@H](C)[C@H]1CC[C@H]2[C@@H]3CC=C4C[C@@](C)(O)CC[C@]4(C)[C@H]3CC[C@]12C (some centres unmarked) [Compound 10-2] | 50 to 100% |
| CCCC[C@](C)(O)CC[C@@H](C)[C@H]1CC[C@H]2[C@@H]3CC=C4C[C@@](C)(O)CC[C@]4(C)[C@H]3CC[C@]12C [Compound 7-4] | 50 to 100% |
| C#C[C@](C)(O)CC[C@@H](C)[C@H]1CC[C@H]2[C@@H]3CC=C4C[C@@](C)(O)CC[C@]4(C)[C@H]3CC[C@]12C [Compound 10-3] | 10 to 50% |
| C#C[C@](C)(O)CC[C@@H](C)[C@H]1CC[C@H]2[C@@H]3CC[C@H]4C[C@@](C)(O)CC[C@]4(C)[C@H]3CC[C@]12C [Compound 10-8] | 50 to 100% |
| CCCC[C@](C)(O)CC[C@@H](C)[C@H]1CC[C@H]2[C@@H]3CC[C@H]4C[C@@](C)(O)CC[C@]4(C)[C@H]3CC[C@]12C [Compound 7-6] | > 100% |
| C[C@H](CC(F)(F)[C@@H](C)O)[C@H]1CC[C@H]2[C@@H]3CC=C4C[C@@](C)(O)CC[C@]4(C)[C@H]3CC[C@]12C [Compound 11-16] | 10 to 50% |
| CC[C@@](C)(O)CC[C@@H](C)[C@H]1CC[C@H]2[C@@H]3CC[C@H]4C[C@@](C)(O)CC[C@]4(C)[C@H]3CC[C@]12C [Compound 4-9] | 10 to 50% |
| CC[C@@](C)(O)CC[C@@H](C)[C@H]1CC[C@H]2[C@@H]3CC=C4C[C@@](C)(O)CC[C@]4(C)[C@H]3CC[C@]12C [Compound 4-11] | > 100% |
| C=C[C@@](C)(O)CC[C@@H](C)[C@H]1CC[C@H]2[C@@H]3CC[C@H]4C[C@@](C)(O)CC[C@]4(C)[C@H]3CC[C@]12C [Compound 10-11] | 10 to 50% |
| COCC[C@@](C)(O)CC[C@@H](C)[C@H]1CC[C@H]2[C@@H]3CC=C4C[C@@](C)(O)CC[C@]4(C)[C@H]3CC[C@]12C [Compound 10-23] | 10 to 50% |
| CC[C@]1(O)CC[C@@]2(C)C(=CC[C@H]3[C@@H]4CC[C@H]([C@H](C)CC[C@@H](O)C(F)(F)F)[C@@]4(C)CC[C@@H]32)C1 [Compound 2-7] | > 100% |
| C[C@H](CC[C@@](C)(O)CCO)[C@H]1CC[C@H]2[C@@H]3CC=C4C[C@@](C)(O)CC[C@]4(C)[C@H]3CC[C@]12C [Compound 10-20] | 10 to 50% |
| C[C@H](CC(F)(F)[C@H](C)O)[C@H]1CC[C@H]2[C@@H]3CC=C4C[C@@](C)(O)CC[C@]4(C)[C@H]3CC[C@]12C [Compound 11-15] | 10 to 50% |
| C[C@H](CC[C@@](C)(O)C(F)(F)F)[C@H]1CC[C@H]2[C@@H]3CC[C@H]4C[C@@](C)(O)CC[C@]4(C)[C@H]3CC[C@]12C [Compound 3-7] | 10 to 50% |
| CCC[C@@](C)(O)CC[C@@H](C)[C@H]1CC[C@H]2[C@@H]3CC[C@H]4C[C@@](C)(O)CC[C@]4(C)[C@H]3CC[C@]12C [Compound 5-8] | 50 to 100% |
| COCC[C@](C)(O)CC[C@@H](C)[C@H]1CC[C@H]2[C@@H]3CC[C@H]4C[C@@](C)(O)CC[C@]4(C)[C@H]3CC[C@]12C [Compound 10-17] | > 100% |

— patent publication US12617814B2, “Neuroactive steroids and methods of use thereof” (Sage Therapeutics, LLC, priority 2013, dated 2026)
